Measurements reported in patent EP0206747B1, “1,4-Dihydropyridine derivatives useful in the treatment of cardiovascular disorders, and a process for producing the derivatives” (WARNER-LAMBERT COMPANY, priority 1985, dated 1986).

Each molecule was assayed on Isolated Guinea Pig Atria (assay: In vitro myocardial inotropic activity in isolated guinea pig atria). Conditions: @ 10^-5M; isolated guinea pig left atria electrically stimulated at 1.5 Hz, PSS 30°C.
Assay type: cell-based, guinea pigs
Protocol: Test for In Vitro Myocardial Inotropic Activity
in Isolated Guinea Pig Atria
Adult male guinea pigs weighing 300-400 g are reserpenized (2000 units i.p.) and, after ten minutes, are killed by cervical dislocation. The hearts are quickly removed and placed in a physiological salt solution (PSS) containing: 118 mM NaCI, 4.8 mM KCI, 2.4 mM CaCI, 1.2 mM MgS04, 1.0 mM NaH2P04, 11.1 m dextrose, and 27.2 mM NaHC03, maintained at pH 7.4 and 30°C. After removing all superficial blood, the hearts are perfused via the aorta to remove any blood from the coronary arteries. After five to ten minutes of perfusion, the left atria are dissected and mounted vertically in a 50 ml, water-jacketed bather containing PSS at 30°C and continuously oxygenated with 95% O2/5% CO2. The left atria are electrically stimulated at 1.5 Hz. The tissues are equilibrated for 30 minutes and washed with fresh PSS. The stimulation voltage is adjusted to 20% above the threshold and tension adjusted to Lmax (the muscle length at which tension development is maximal). The tissues are then equilibrated for an additional 30 minutes, after which the compounds to be examined are added to the tissue bather. […] The compounds are added in full or half-log concentration increments, usually over a concentration range of 1 x 10-^8 to 1 x 10-^4M. The muscles are generally allowed to assume a new steady-state contractile response before each subsequent addition of drug.
Using this procedure the inotropic activity of preferred compounds of the present invention is shown as found in the following Table 1. The reference calcium antagonist has also been tested for comparison.

Compound	% Change in Myocardial Contractility (PSCI)
CCOC(=O)C1=C(C[S+]([O-])c2ccccc2)NC(C)=C(C#N)C1c1ccccc1C(F)(F)F (single isomer, unassigned) [Example 2 Isomer B, Ethyl 5-cyano-1,4-dihydro-6-methyl-2-[(phenylsulfinyl)methyl]-4-[2-(trifluoromethyl)phenyl]-3-pyridinecarboxylate]	+53%

Same assay, conditions: Cavia porcellus, @ 10^-5M; isolated guinea pig left atria electrically stimulated at 1.5 Hz, PSS 30°C; read-out: % Change in Myocardial Contractility (PSCI)

Compound	activation at 10 µM
CCOC(=O)C1=C(C[S+]([O-])c2ccccc2)NC(C)=C(C#N)C1c1ccccc1C(F)(F)F (single isomer, unassigned) [Example 2 Isomer A, Ethyl 5-cyano-1,4-dihydro-6-methyl-2-[(phenylsulfinyl)methyl]-4-[2-(trifluoromethyl)phenyl]-3-pyridinecarboxylate]	33%
CCOC(=O)C1=C(C[S+]([O-])c2ccccc2)NC(C)=C(C#N)C1c1cccc([N+](=O)[O-])c1 (stereo not shown) [Example 2B]	30%
CCOC(=O)C1=C(C[S+]([O-])c2ccccc2)NC(C)=C(C#N)C1c1ccccc1Cl (stereo not shown) [Example 2D]	26%
CCOC(=O)C1=C(CS(=O)(=O)c2ccccc2)NC(C)=C(C#N)C1c1ccccc1C(F)(F)F (stereo not shown) [Example 3A, Ethyl 5-cyano-1,4-dihydro-6-methyl-2-[(phenylsulfonyl)methyl]-4-[2-(trifluoromethyl)phenyl]-3-pyridinecarboxylate]	26%
CCOC(=O)C1=C(CS(=O)(=O)c2ccccc2C)NC(C)=C(C#N)C1c1ccccc1C(F)(F)F (stereo not shown) [Example 3C]	33%
CCOC(=O)C1=C(CS(=O)(=O)c2ccccc2Cl)NC(C)=C(C#N)C1c1ccccc1C(F)(F)F (stereo not shown) [Example 3D]	33%
